Data set [1] relates to anti-PI-2301 biotinylated antibody (bAb). Put plainly: Direct competition ELISA, specificity of the anti-PI-2301 biotinylated antibody. The data set is classed as binding, rabbit. As to the method:
A direct competition ELISA was carried out for the detection and quantitation of PI-2301, an RSP composition. […] Unbound material was washed away and diluted streptavidin-horseradish peroxidase (HRP) conjugate was added to the wells. After washing away any unbound streptavidin conjugate, substrate for HRP catalyzed […] was added to the wells and incubated, yielding a blue color that turns yellow when stop solution is added. The optical density of the color was measured at 450 nm using a microtiter plate reader (for example, Bio-Tek ELx405) and a standard curve was generated.
Specificity is the ability of a method to measure the material of interest to the exclusion of other similar compounds. In this method, specificity is a function of the anti-PI-2301 biotinylated antibody (bAb). If the bAb recognizes, and binds preferentially to, the compound in the serum the bAb will be washed away and the final A450 value will be low. […] Table 5 summarizes the A450 specificity data for 3 compounds spiked into mouse serum.

The nature of data set [2]: Serum concentration and bioavailability after administration to mice (ELISA). The data set is classed as in vivo, CD-1 mice. The protocol:
The blood sample was allowed to clot at room temperature for 15-30 minutes and then the tube was centrifuged at 4° C., 10,000 RPM, for 10 minutes in order to isolate serum. Serum was collected, aliquoted, and stored −80° C. for future testing.
After washing away any unbound conjugate, substrate was added to the wells and incubated, yielding a blue color that turned yellow when stop solution was added. The optical density was measured at 450 nm and a standard curve was generated.
A general note: An ELISA detects its analyte on a solid surface through an enzyme-linked reagent.

The subject of data set [3] is myeloid cells isolated from femurs of immunologically naive mice. Description: In vitro effects on macrophages: cytokines and chemokines in supernatants. To be noted: culture supernatant. The data set is classed as cell-based. From the text:
Isolated cells were labeled with magnetic beads and T- and B-cells were depleted from the sample. […] TNFα, IL-6, CXCL1 and CXCL2 as inflammatory markers, and IL-12p70, CXCL13, and CCL22 as regulatory markers.

Data set [4] has as its target HLA-DR2 (DRB1*1501) (Homo sapiens, UniProt P01903+P01911). The conditions noted are these: MS-associated, peptide-specific manner; cited from earlier work.
The target in data set [5] is HLA-DR1 (DRB1*0101) (Homo sapiens, UniProt P01903+P01911, A100R/D57E/F55L/F60I/F76Y/I96L/L162R/M171V/P40L/Q125E/R42F/V115G/Y59C). The conditions noted are these: RA-associated, peptide-specific manner; cited from earlier work.
In data set [6] the target is HLA-DR4 (DRB1*0401) (Homo sapiens, UniProt P01903+P01911, A100K/A169T/F76Y/I96L/K127E/L162R/M171V/N62H/P40V/Q125Y/R42H/S133A/S149N/S66Y/V115G/V209L/W38E). The conditions noted are these: RA-associated, peptide-specific manner; cited from earlier work.
The test system of data set [7] is MS. To be noted: Bornstein 1987; Johnson 1995; cited from earlier work.

glatiramer acetate [Cop-1]: the “detection by the antibody for PI-2301” value in data set [1] is “detects Cop-1 efficiently”. The “time of peak serum concentration” value in data set [2] (after subcutaneous administration to mice) is recorded as “about 15 minutes”. Also, the “administered amount available in the plasma (bioavailability)” value in data set [2] (mice, single subcutaneous or intravenous administration) is on record as “About 8.5%”. Further, in data set [3], the “expression of CXCL1” value is “no significant effect”, the “expression of CXCL2” value is on record as “no significant effect”, the “expression of IL-6” value was “no significant effect” and the “expression of TNFα” value is given as “no significant effect”. The “binding to purified HLA-DR2 (DRB1*1501)” value in data set [4] was “high affinity”. In addition, the “binding to purified HLA-DR1 (DRB1*0101)” value in data set [5] is reported as “high affinity”. Moreover, the “binding to purified HLA-DR4 (DRB1*0401)” value in data set [6] is “high affinity”. In addition, the “effect on MS in patients” value in data set [7] is “ameliorate MS but does not suppress the disease entirely”.

The values above are taken from patent US20090275496A1, “Effective quantitation of complex peptide mixtures in tissue samples and improved therapeutic methods” (Peptimmune, Inc., priority 2004, published 2009).
